Measured values as given in US20250388573A1, “FUSED BICYCLIC EGFR INHIBITORS AND METHODS OF USE THEREOF” (Dana-Farber Cancer Institute, Inc., priority 2022, published 2025).

How the values were obtained:
EGFR L858R/T790M = EGFR L858R/T790M (Homo sapiens (Human), UniProt P00533, L858R/T790M); test: HTRF-based EGFR biochemical assay, L858R/T790M; settings: L858R/T790M 0.02 nM enzyme, 100 μM ATP; read-out: LRTM enzyme IC50
Procedure: (§1) EGFR biochemical activity measurements were carried out using the homogeneous time-resolved fluorescence (HTRF) assay (Cisbio). Inhibitors and DMSO normalizations were first dispensed to empty black low-volume 384-well plates (Corning) with D300 digital liquid dispenser (HP). All reactions were carried out at room temperature and solutions were added to plates with a Multidrop Combi Reagent Dispenser (ThermoFisher). The reaction mixture (10 µL final volume) contained 1 μM tyrosine kinase peptide-biotin substrate and mutant EGFR in a reaction buffer (50 mM HEPES pH 7.0, 5 mM MgCl2, 1 mM MnCl2, 0.01% BSA, 2 mM TCEP, 0.1 mM NaVO4). Enzyme concentrations were adjusted to accommodate varying kinase activities (L858R 0.1 nM, L858R/T790M 0.02 nM). Enzyme reaction solution (2× concentrations, 5 μL) was added to 384-well plates containing compounds and incubated for 30 mins. Enzyme reactions were initiated with the addition of 5 μL of ATP to a final concentration of 100 μM and reacted for 20 mins. Reactions were quenched with the addition of 10 μL of phospho-tyrosine antibody-Europium (III) cryptate (1-to-180 volume ratio) and Streptavidin-XL665 (46.7 nM) in EDTA-containing detection buffer, then incubated at room temperature for 1 hour, and read with a PHERAstar plate reader (excitation=337 nm, emission=620 nm and 665 nm). IC50 values were determined by inhibition curves (11-point curves from 1.0 μM to 0.130 nM or 23-point curves from 1.0 μM to 0.130 μM) in triplicate with non-linear least squares fit in GraphPad Prism 7.0d.

EGFR L858R = EGFR L858R (Homo sapiens (Human), UniProt P00533, L858R); test: HTRF-based EGFR biochemical assay, L858R; settings: L858R 0.1 nM enzyme, 100 μM ATP; read-out: LR enzyme IC50
EGFR L858R, sequence (P00533 25-1210 L858R): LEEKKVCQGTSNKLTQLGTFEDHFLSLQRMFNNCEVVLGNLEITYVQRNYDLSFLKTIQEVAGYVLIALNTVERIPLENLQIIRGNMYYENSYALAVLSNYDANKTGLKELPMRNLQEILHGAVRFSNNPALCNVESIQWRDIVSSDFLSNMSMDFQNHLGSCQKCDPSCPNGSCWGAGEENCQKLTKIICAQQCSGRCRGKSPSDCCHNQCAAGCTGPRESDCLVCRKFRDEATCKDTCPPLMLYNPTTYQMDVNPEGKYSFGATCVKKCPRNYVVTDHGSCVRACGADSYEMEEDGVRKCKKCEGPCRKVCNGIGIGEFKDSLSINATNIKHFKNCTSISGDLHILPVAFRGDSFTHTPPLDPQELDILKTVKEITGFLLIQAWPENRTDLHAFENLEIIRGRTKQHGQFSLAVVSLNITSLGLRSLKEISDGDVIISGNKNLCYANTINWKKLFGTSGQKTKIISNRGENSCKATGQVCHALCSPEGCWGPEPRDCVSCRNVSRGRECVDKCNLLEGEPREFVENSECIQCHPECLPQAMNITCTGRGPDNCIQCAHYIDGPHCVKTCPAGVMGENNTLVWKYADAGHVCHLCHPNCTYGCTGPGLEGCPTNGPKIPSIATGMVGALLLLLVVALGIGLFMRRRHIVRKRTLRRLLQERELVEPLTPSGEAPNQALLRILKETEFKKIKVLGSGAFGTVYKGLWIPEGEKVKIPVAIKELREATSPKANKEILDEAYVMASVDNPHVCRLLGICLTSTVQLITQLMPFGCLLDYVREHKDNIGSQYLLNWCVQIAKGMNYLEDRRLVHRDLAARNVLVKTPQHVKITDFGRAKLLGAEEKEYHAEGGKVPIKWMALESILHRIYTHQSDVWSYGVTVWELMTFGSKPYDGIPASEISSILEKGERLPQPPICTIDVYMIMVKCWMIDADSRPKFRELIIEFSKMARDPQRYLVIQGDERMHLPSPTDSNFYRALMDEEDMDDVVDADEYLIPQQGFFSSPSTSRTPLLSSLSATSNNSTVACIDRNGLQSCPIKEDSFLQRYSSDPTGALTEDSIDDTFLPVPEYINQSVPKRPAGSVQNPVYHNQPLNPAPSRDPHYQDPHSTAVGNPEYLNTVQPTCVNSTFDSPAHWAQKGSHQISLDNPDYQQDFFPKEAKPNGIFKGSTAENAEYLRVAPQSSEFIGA
Procedure: as §1

[1] = system: EGFR mutant L858R Ba/F3 cells; test: Ba/F3 cell proliferation (Cell Titer Glo), L858R; type: cell-based, murine; settings: Mus musculus, BaF3, 72 hours, read-out: LR BaF3 cell IC50
Description: (§2) The EGFR mutant L858R and L858R/T790M Ba/F3 cells have been previously described (Zhou, W., et al. Nature 462, 2009, 1070-1074). All cell lines were maintained in RPMI 1640 (Cellgro; Mediatech Inc., Herndon, CA) supplemented with 10% FBS, 100 units/mL penicillin, 100 units/mL streptomycin. The EGFR 1941R mutation was introduced via site directed mutagenesis using the Quick Change Site-Directed Mutagenesis kit (Stratagene; La Jolla, CA) according to the manufacturer's instructions. All constructs were confirmed by DNA sequencing. The constructs were shuttled into the retroviral vector JP1540 using the Cre-recombination system (Agilent Technologies, Santa Clara, CA). Ba/F3 cells were then infected with retrovirus per standard protocols, as described previously (Zhou, et al, Nature 2009). Stable clones were obtained by selection in puromycin (2 μg/ml).
(§3) Growth and inhibition of growth was assessed by the Cell Titer Glo assay (Promega, Madison, WI) and was performed according to the manufacturer's instructions. The Cell Titer Glo assay is a luminescence-based method used to determine the number of viable cells based on quantitation of the ATP present, which is directly proportional to the amount of metabolically active cells present. Ba/F3 cells of different EGFR genotypes were exposed to the compounds disclosed herein for 72 hours and the number of cells used per experiment was determined empirically as has been previously established (Zhou, et al., Nature 2009). All experimental points were set up in triplicates in 384-well plates and all experiments were repeated at least three times. […] The curves were fitted using a non-linear regression model with a sigmoidal dose response.

[2] = system: EGFR mutant L858R/T790M Ba/F3 cells; test: Ba/F3 cell proliferation (Cell Titer Glo), L858R/T790M; type: cell-based, murine; settings: Mus musculus, BaF3, 72 hours, read-out: LRTM BaF3 cell IC50
Description: as §2, §3

EGFR L858R/T790M, sequence (P00533 25-1210 T790M/L858R): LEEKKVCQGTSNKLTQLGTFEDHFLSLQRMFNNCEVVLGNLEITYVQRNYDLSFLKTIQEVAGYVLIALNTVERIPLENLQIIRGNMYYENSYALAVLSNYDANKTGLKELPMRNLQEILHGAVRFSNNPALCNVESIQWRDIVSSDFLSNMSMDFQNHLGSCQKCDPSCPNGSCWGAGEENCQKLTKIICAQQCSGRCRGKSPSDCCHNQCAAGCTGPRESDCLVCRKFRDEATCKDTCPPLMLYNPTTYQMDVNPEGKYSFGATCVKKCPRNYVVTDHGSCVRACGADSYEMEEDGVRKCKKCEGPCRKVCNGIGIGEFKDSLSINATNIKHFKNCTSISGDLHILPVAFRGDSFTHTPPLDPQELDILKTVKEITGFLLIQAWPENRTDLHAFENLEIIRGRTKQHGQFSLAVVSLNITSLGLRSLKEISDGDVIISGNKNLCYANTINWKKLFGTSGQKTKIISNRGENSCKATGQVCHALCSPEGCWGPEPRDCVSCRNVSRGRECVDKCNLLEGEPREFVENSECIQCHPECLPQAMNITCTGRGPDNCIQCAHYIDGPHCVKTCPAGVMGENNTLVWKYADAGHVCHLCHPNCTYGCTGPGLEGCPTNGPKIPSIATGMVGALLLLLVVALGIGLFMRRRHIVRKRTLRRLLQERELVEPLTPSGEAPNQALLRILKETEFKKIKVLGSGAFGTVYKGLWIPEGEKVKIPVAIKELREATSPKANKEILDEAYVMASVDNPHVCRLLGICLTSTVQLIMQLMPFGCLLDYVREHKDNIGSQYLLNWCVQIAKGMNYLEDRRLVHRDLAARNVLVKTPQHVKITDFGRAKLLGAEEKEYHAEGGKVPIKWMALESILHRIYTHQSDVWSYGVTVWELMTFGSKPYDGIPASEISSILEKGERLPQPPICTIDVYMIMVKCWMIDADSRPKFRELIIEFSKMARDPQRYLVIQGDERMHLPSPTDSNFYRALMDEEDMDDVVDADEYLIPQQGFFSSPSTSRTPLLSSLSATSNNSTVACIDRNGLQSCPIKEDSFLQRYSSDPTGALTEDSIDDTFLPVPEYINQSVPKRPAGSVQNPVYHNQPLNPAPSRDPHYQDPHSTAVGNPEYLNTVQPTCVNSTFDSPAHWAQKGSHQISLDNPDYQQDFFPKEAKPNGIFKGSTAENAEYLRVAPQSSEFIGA

Compound | IC50 (EGFR L858R/T790M) [µM] | IC50 (EGFR L858R) [µM] | IC50 [1] [µM] | IC50 [2] [µM]
CN1CCN(c2ccc(-c3ccc4c(c3)C(=O)N(C(C(=O)Nc3nccs3)c3cccc(F)c3)CO4)cc2)CC1 (stereo not drawn) [Compound 002, 2-(3-Fluorophenyl)-2-(6-(4-(4-methylpiperazin-1-yl)phenyl)-4-oxo-2H-benzo[e][1,3]oxazin-3 (4H)-yl)-N-(thiazol-2-yl)acetamide] | 0.004 | 0.023 |  | 
CN1CCC(c2ccc(-c3ccc4c(c3)C(=O)N(C(C(=O)Nc3nccs3)c3cccc(F)c3)CO4)cc2)CC1 (stereo not drawn) [Compound 001, 2-(3-Fluorophenyl)-2-(6-(4-(1-methylpiperidin-4-yl)phenyl)-4-oxo-2H-benzo[e][1,3]oxazin-3 (4H)-yl)-N-(thiazol-2-yl)acetamide] | 0.0004 | 0.0028 | 1.48 | 0.51
CN1CCC(c2ccc(-c3ccc4c(c3F)C(=O)N(C(C(=O)Nc3nccs3)c3ccccc3)CO4)cc2)CC1 (stereo not drawn) [Compound 005, 2-(5-Fluoro-6-(4-(1-methylpiperidin-4-yl)phenyl)-4-oxo-2H-benzo[e][1,3]oxazin-3(4H)-yl)-2-phenyl-N-(thiazol-2-yl)acetamide] | 0.001 | 0.0037 | 1.04 | 0.46
CN1CCC(c2ccc(-c3ccc4c(c3)C(=O)N(C(c3nc5ccccc5[nH]3)c3cc(F)ccc3O)CO4)cc2)CC1 (stereo not drawn) [Compound 007, 3-((1H-Benzo[d]imidazol-2-yl) (5-fluoro-2-hydroxyphenyl)methyl)-6-(4-(1-methylpiperidin-4-yl)phenyl)-2,3-dihydro-4H-benzo[e][1,3]oxazin-4-one 2,2,2-trifluoroacetate] | 0.0007 | 0.0019 | 0.47 | 0.22
CN1CCC(c2ccc(-c3ccc4c(c3)OCN(C(C(=O)Nc3nccs3)c3ccccc3)C4=O)cc2)CC1 (stereo not drawn) [Compound 004, 2-(7-(4-(1-Methylpiperidin-4-yl)phenyl)-4-oxo-2H-benzo[e][1,3]oxazin-3(4H)-yl)-2-phenyl-N-(thiazol-2-yl)acetamide] | 0.021 | > 0.1 |  | 
CN1CCC(c2ccc(-c3ccc4c(c3)OCN(C(c3nc5ccccc5[nH]3)c3cc(F)ccc3O)C4=O)cc2)CC1 (stereo not drawn) [Compound 006, 3-((1H-Benzo[d]imidazol-2-yl) (5-fluoro-2-hydroxyphenyl)methyl)-7-(4-(1-methylpiperidin-4-yl)phenyl)-2,3-dihydro-4H-benzo[e][1,3]oxazin-4-one] | 0.0009 | 0.0036 | 1.54 | 0.88
CN1CCC(c2ccc(-c3ccc4c(c3)C(=O)N(C(C(=O)Nc3nccs3)c3ccccc3)CO4)cc2)CC1 (stereo not drawn) [Compound 003, 2-(6-(4-(1-Methylpiperidin-4-yl)phenyl)-4-oxo-2H-benzo[e][1,3]oxazin-3(4H)-yl)-2-phenyl-N-(thiazol-2-yl)acetamide] | 0.0008 | 0.023 | 1.25 | 0.46
